In patent US5637697A, “1,5-benzodiazepine derivatives and their use in medicine” (Glaxo SpA, priority 1992, dated 1997):

Key:
[1] = test system: mice and rats; assay: oral tolerability / untoward effects in mice and rats; assay type: in vivo; settings: given orally to mice and rats at doses at which the compound exhibits anxiolytic activity
Excerpt: (§1) The compounds of the invention are essentially non-toxic and therapeutically useful doses.

[2] = test system: mice and rats; assay: anxiolytic activity, oral, mice and rats; assay type: in vivo; settings: given orally to mice and rats
Excerpt: For example in mice in the black-white box test and in the rat social interaction model.
as §1

[3] = target: T1, CCK-B receptor (Cavia porcellus, UniProt H0VZC5); assay: CCK-B receptor binding (guinea pig cortex assay); settings: read-out: pKi CCK-B (converted)
T1 construct: CCK-B receptor (guinea pig cortex assay); from tissue; host or cells: guinea pig cortex
Procedure: The greater affinity of the compounds of the invention for the CCK-B receptor over the CCK-A receptor has also been established using the CCK, receptor binding assays described by G Dal Fornos et al., J. Pharmcol. Exp & Ther. 261, 1056-1063, 1992.
The binding affinity of the compounds of the invention for the CCK-A receptor (Pancreas Assay) and CCK-B receptor (guinea pig cortex assay) was determined using the procedure of G Dal Forno et al J. Pharmacol. Exp & Ther. 261 - 1056-1063. The pKi values determined with respresentative compounds of invention were as follows: […]

T1 sequence (H0VZC5 entry or part of it): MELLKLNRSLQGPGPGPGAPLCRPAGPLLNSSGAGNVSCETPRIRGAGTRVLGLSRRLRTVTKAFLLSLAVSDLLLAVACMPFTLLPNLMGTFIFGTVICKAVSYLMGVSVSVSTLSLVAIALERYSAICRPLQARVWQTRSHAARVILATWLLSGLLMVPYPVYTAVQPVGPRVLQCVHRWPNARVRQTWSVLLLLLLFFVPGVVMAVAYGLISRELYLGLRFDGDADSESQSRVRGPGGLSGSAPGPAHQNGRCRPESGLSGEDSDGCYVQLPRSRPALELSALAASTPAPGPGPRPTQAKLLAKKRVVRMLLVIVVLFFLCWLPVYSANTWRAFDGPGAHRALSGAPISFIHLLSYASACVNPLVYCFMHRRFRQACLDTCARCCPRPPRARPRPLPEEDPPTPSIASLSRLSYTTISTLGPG

SMILES	untoward effects [1]	anxiolytic activity [2]	Ki [3] [nM]
O=C(Nc1ccccc1)NC1C(=O)N(CC23CC4CC(CC(C4)C2)C3)c2ccccc2N(c2ccccc2)C1=O (single isomer, unassigned; (+)) [Example 45, (+)-N-[1-(Adamantanmethyl)-2,4-dioxo-5-phenyl-2,3,4,5-tetrahydro-1H-1,5-benzodiazepin-3-yl]-N'-phenylurea]	no untoward effects were obserbved	exhibits anxiolytic activity	
O=C(Nc1ccccc1)NC1C(=O)N(CC2CC3C=CC2C3)c2ccccc2N(c2ccccc2)C1=O (stereo not drawn) [Example 31, N-[1-(Bicyclo[2.2.1]-5-heptene-2-ylmethyl)-2,4-dioxo-5-phenyl-2,3,4,5-tetrahydro-1H-1,5-benzodiazepin-3-yl]-N'-phenylurea]			1.2
